From PubChem BioAssay AID1963424 (Molecular Pharmacology Branch, DTP, NCI, 2024)

Test system: 327498-153-R-J2-PDC complex spheroid growth, % test/control
Assay: Anticancer human tumor 327498-153-R-J2-PDC patient-derived uterine carcinosarcoma cell line growth inhibition [Asc]
Conditions: for IC50: curve of first compound; for viability, T/C: stronger effect = lower value; active means viability on the fitted dose curve at most 10% of control; inactive means the rest
In short: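 Spheroid model: tumor line + HUVEC + hMSC. Single agents and combinations; top conc. at/near clinical Cmax (10 microM if undetermined), half-log dilutions. DMSO stocks at 800-fold test concentration.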

[1] = second compound 0.01 µM, first compound 0.0316 µM
[2] = second compound 0.01 µM, first compound 0.1 µM
[3] = second compound 0.01 µM, first compound 0.316 µM
[4] = second compound 0.01 µM, first compound 1 µM
[5] = second compound 0.0316 µM, first compound 0.0316 µM
[6] = second compound 0.0316 µM, first compound 0.1 µM
[7] = second compound 0.0316 µM, first compound 0.316 µM
[8] = second compound 0.0316 µM, first compound 1 µM
[9] = second compound 0.1 µM, first compound 0.00316 µM
[10] = second compound 0.1 µM, first compound 0.01 µM
[11] = second compound 0.1 µM, first compound 0.0316 µM
[12] = second compound 0.1 µM, first compound 0.1 µM
[13] = second compound 0.1 µM, first compound 0.316 µM
[14] = second compound 0.1 µM, first compound 1 µM
[15] = second compound 0.316 µM, first compound 0.00316 µM
[16] = second compound 0.316 µM, first compound 0.01 µM
[17] = second compound 0.316 µM, first compound 0.0316 µM
[18] = second compound 0.316 µM, first compound 0.1 µM
[19] = second compound 0.316 µM, first compound 0.316 µM
[20] = second compound 0.316 µM, first compound 1 µM
[21] = second compound 1 µM, first compound 0.00316 µM
[22] = second compound 1 µM, first compound 0.01 µM
[23] = second compound 1 µM, first compound 0.0316 µM
[24] = second compound 1 µM, first compound 0.1 µM
[25] = second compound 1 µM, first compound 0.316 µM
[26] = second compound 1 µM, first compound 1 µM
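Further: spheroids exposed to compound for 7 days after 3 days of growth.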
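Wherever viability, T/C is given: 100% = DMSO vehicle control wells.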

CCN1CCN(Cc2ccc(Nc3ncc(F)c(-c4cc(F)c5nc(C)n(C(C)C)c5c4)n3)nc2)CC1 + CNC(C)C(=O)NC1CN(S(=O)(=O)c2cccc(S(=O)(=O)N3CCC4CCC(C(=O)NC(c5ccccc5)c5ccccc5)N4C(=O)C(NC(=O)C(C)NC)C3)c2)CCC2CCC(C(=O)NC(c3ccccc3)c3ccccc3)N2C1=O
inactive: viability, T/C (second compound 0.01 µM, first compound 0.00316 µM) 102% | viability, T/C (second compound 0.01 µM, first compound 0.01 µM) 110% | viability, T/C [1] 97.7% | viability, T/C [2] 88.9% | viability, T/C [3] 68.7% | viability, T/C [4] 73.8% | viability, T/C (second compound 0.0316 µM, first compound 0.00316 µM) 106% | viability, T/C (second compound 0.0316 µM, first compound 0.01 µM) 104% | viability, T/C [5] 90.5% | viability, T/C [6] 82.4% | viability, T/C [7] 61.2% | viability, T/C [8] 65% | viability, T/C [9] 99.4% | viability, T/C [10] 104% | viability, T/C [11] 94% | viability, T/C [12] 76.7% | viability, T/C [13] 68% | viability, T/C [14] 68.2% | viability, T/C [15] 110% | viability, T/C [16] 100% | viability, T/C [17] 95.5% | viability, T/C [18] 75.9% | viability, T/C [19] 65.8% | viability, T/C [20] 64.4% | viability, T/C [21] 106% | viability, T/C [22] 115% | viability, T/C [23] 91.6% | viability, T/C [24] 82.1% | viability, T/C [25] 73% | viability, T/C [26] 54.7%
> 1000 nM: IC50 (second compound 0.01 µM) | IC50 (second compound 0.0316 µM) | IC50 (second compound 0.1 µM) | IC50 (second compound 0.316 µM) | IC50 (second compound 1 µM)

NC(=O)C(=Cn1cnc(-c2cc(C(F)(F)F)cc(C(F)(F)F)c2)n1)c1cncnc1 + CNC(C)C(=O)NC1CN(S(=O)(=O)c2cccc(S(=O)(=O)N3CCC4CCC(C(=O)NC(c5ccccc5)c5ccccc5)N4C(=O)C(NC(=O)C(C)NC)C3)c2)CCC2CCC(C(=O)NC(c3ccccc3)c3ccccc3)N2C1=O
inactive: viability, T/C (second compound 0.01 µM, first compound 0.000949 µM) 93% | viability, T/C (second compound 0.01 µM, first compound 0.003 µM) 111% | viability, T/C (second compound 0.01 µM, first compound 0.00949 µM) 84.5% | viability, T/C (second compound 0.01 µM, first compound 0.03 µM) 63% | viability, T/C (second compound 0.01 µM, first compound 0.0949 µM) 12.1% | viability, T/C (second compound 0.0316 µM, first compound 0.000949 µM) 90.1% | viability, T/C (second compound 0.0316 µM, first compound 0.003 µM) 91.5% | viability, T/C (second compound 0.0316 µM, first compound 0.00949 µM) 88% | viability, T/C (second compound 0.0316 µM, first compound 0.03 µM) 63.8% | viability, T/C (second compound 0.1 µM, first compound 0.000949 µM) 92.8% | viability, T/C (second compound 0.1 µM, first compound 0.003 µM) 94.4% | viability, T/C (second compound 0.1 µM, first compound 0.00949 µM) 85.8% | viability, T/C (second compound 0.1 µM, first compound 0.03 µM) 65.4% | viability, T/C (second compound 0.1 µM, first compound 0.0949 µM) 9.53% | viability, T/C (second compound 0.316 µM, first compound 0.000949 µM) 91.9% | viability, T/C (second compound 0.316 µM, first compound 0.003 µM) 91.8% | viability, T/C (second compound 0.316 µM, first compound 0.00949 µM) 88.4% | viability, T/C (second compound 0.316 µM, first compound 0.03 µM) 65% | viability, T/C (second compound 1 µM, first compound 0.000949 µM) 102% | viability, T/C (second compound 1 µM, first compound 0.003 µM) 92.1% | viability, T/C (second compound 1 µM, first compound 0.00949 µM) 82.2% | viability, T/C (second compound 1 µM, first compound 0.03 µM) 75.2%
40.9 nM: IC50 (second compound 0.1 µM) | IC50 (second compound 0.316 µM)
46 nM: IC50 (second compound 1 µM)
40.1 nM: IC50 (second compound 0.0316 µM)
38.6 nM: IC50 (second compound 0.01 µM)
active: viability, T/C (second compound 0.01 µM, first compound 0.3 µM) 1.73% | viability, T/C (second compound 0.0316 µM, first compound 0.0949 µM) 9.05% | viability, T/C (second compound 0.0316 µM, first compound 0.3 µM) 1.71% | viability, T/C (second compound 0.1 µM, first compound 0.3 µM) 1.32% | viability, T/C (second compound 0.316 µM, first compound 0.0949 µM) 9.52% | viability, T/C (second compound 0.316 µM, first compound 0.3 µM) 1.32% | viability, T/C (second compound 1 µM, first compound 0.0949 µM) 7.78% | viability, T/C (second compound 1 µM, first compound 0.3 µM) 1.13%

CNC(C)C(=O)NC1CN(S(=O)(=O)c2cccc(S(=O)(=O)N3CCC4CCC(C(=O)NC(c5ccccc5)c5ccccc5)N4C(=O)C(NC(=O)C(C)NC)C3)c2)CCC2CCC(C(=O)NC(c3ccccc3)c3ccccc3)N2C1=O (stereo not given) + Cc1c(S(C)(=O)=O)c(-c2cc(F)cc(N3CCN(c4ccc(NS(=O)(=O)c5ccc(NC(CCN6CCC(C(=O)OCCCP(=O)(O)O)CC6)CSc6ccccc6)c(S(=O)(=O)C(F)(F)F)c5)cc4)CC3)c2)c(-c2ccc(Cl)cc2)n1C(C)C
> 1000 nM: IC50 (second compound 0.1 µM) | IC50 (second compound 0.316 µM) | IC50 (second compound 1 µM) | IC50 (second compound 3.16 µM) | IC50 (second compound 10 µM)
inactive: viability, T/C [9] 94.1% | viability, T/C [10] 91.2% | viability, T/C [11] 98% | viability, T/C [12] 92.3% | viability, T/C [13] 93.8% | viability, T/C [14] 82.4% | viability, T/C [15] 93.1% | viability, T/C [16] 93.3% | viability, T/C [17] 96.6% | viability, T/C [18] 87.2% | viability, T/C [19] 87.7% | viability, T/C [20] 83.9% | viability, T/C [21] 100% | viability, T/C [22] 90.6% | viability, T/C [23] 97% | viability, T/C [24] 80.3% | viability, T/C [25] 82.1% | viability, T/C [26] 92.2% | viability, T/C (second compound 3.16 µM, first compound 0.00316 µM) 84.4% | viability, T/C (second compound 3.16 µM, first compound 0.01 µM) 90.8% | viability, T/C (second compound 3.16 µM, first compound 0.0316 µM) 88.4% | viability, T/C (second compound 3.16 µM, first compound 0.1 µM) 86% | viability, T/C (second compound 3.16 µM, first compound 0.316 µM) 89.8% | viability, T/C (second compound 3.16 µM, first compound 1 µM) 85% | viability, T/C (second compound 10 µM, first compound 0.00316 µM) 173% | viability, T/C (second compound 10 µM, first compound 0.01 µM) 166% | viability, T/C (second compound 10 µM, first compound 0.0316 µM) 156% | viability, T/C (second compound 10 µM, first compound 0.1 µM) 146% | viability, T/C (second compound 10 µM, first compound 0.316 µM) 153% | viability, T/C (second compound 10 µM, first compound 1 µM) 136%

O=C(c1cc(Cc2n[nH]c(=O)c3ccccc23)ccc1F)N1CCN(C(=O)C2CC2)CC1 + CNC(C)C(=O)NC1CN(S(=O)(=O)c2cccc(S(=O)(=O)N3CCC4CCC(C(=O)NC(c5ccccc5)c5ccccc5)N4C(=O)C(NC(=O)C(C)NC)C3)c2)CCC2CCC(C(=O)NC(c3ccccc3)c3ccccc3)N2C1=O
4520 nM: IC50 (second compound 0.01 µM)
3830 nM: IC50 (second compound 0.0316 µM)
4070 nM: IC50 (second compound 0.316 µM)
3710 nM: IC50 (second compound 1 µM)
inactive: viability, T/C [1] 98.8% | viability, T/C [2] 105% | viability, T/C [3] 102% | viability, T/C [4] 99.2% | viability, T/C (second compound 0.01 µM, first compound 3.16 µM) 67.9% | viability, T/C (second compound 0.01 µM, first compound 10 µM) 11.3% | viability, T/C [5] 102% | viability, T/C [6] 100% | viability, T/C [7] 108% | viability, T/C [8] 88.5% | viability, T/C (second compound 0.0316 µM, first compound 3.16 µM) 58.7% | viability, T/C [11] 97.5% | viability, T/C [12] 99.9% | viability, T/C [13] 102% | viability, T/C [14] 89.8% | viability, T/C (second compound 0.1 µM, first compound 3.16 µM) 57.6% | viability, T/C [17] 104% | viability, T/C [18] 107% | viability, T/C [19] 94.5% | viability, T/C [20] 91.4% | viability, T/C (second compound 0.316 µM, first compound 3.16 µM) 60.3% | viability, T/C (second compound 0.316 µM, first compound 10 µM) 11.1% | viability, T/C [23] 96.8% | viability, T/C [24] 100% | viability, T/C [25] 94.5% | viability, T/C [26] 90.3% | viability, T/C (second compound 1 µM, first compound 3.16 µM) 56.4%
active: viability, T/C (second compound 0.0316 µM, first compound 10 µM) 9.57% | viability, T/C (second compound 0.1 µM, first compound 10 µM) 9.51% | viability, T/C (second compound 1 µM, first compound 10 µM) 9.85%
3780 nM: IC50 (second compound 0.1 µM)
